According to paper PMC5563081, “Modulating Protein-Protein Interactions of the Mitotic Polo-like Kinases to Target Mutant KRAS” (Cell Chemical Biology, 2017):

Legend:
Assay type in all cases: cell-based
[1] = target: T1, NanoLuc-PLK2 fusion protein (Homo sapiens, UniProt Q9NYY3); assay: NanoLuc thermal shift assay; settings: compound at 100 μM
T1 construct: NanoLuc fused to the N-termini of full-length human PLK1, PLK2, PLK3, PLK4 or p38α MAPK; expressed in transfected cells; host or cells: HeLa, transient, digitonin-permeabilised
T1 sequence (Q9NYY3 whole entry, the tested form may be a part): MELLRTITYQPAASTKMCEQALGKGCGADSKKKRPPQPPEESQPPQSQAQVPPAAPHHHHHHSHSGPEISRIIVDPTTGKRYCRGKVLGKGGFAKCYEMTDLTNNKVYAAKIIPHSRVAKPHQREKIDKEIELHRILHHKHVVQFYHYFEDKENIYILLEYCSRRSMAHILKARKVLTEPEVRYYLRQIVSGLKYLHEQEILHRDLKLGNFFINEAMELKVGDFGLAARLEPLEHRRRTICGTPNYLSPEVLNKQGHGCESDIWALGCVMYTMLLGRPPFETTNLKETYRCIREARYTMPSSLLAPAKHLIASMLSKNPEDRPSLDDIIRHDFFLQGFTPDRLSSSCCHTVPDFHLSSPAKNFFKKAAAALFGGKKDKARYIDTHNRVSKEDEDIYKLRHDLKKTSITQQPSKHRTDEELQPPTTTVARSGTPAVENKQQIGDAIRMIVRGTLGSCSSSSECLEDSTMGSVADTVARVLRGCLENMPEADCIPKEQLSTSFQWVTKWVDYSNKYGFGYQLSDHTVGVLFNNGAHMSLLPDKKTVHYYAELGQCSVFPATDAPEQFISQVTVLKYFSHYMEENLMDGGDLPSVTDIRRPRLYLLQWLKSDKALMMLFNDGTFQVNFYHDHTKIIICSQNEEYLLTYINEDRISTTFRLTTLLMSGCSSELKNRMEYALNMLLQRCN
Method: (§1) HeLa cells were transfected with plasmids encoding NanoLuc fused to the N-termini of full-length human PLK1, PLK2, PLK3, PLK4 or p38α MAPK. Twenty-four h after transfection, the thermal stability of the fusion proteins was tested using a modified version of the assay protocol supplied by Promega. Briefly, cells were harvested by tyrpsinisation and centrifugation, counted, and resuspended to 200,000 cells/ml in 3mls of serum-free OptiMEM media. Cells were then permeabilised using with 50ug/ml digitonin in DMSO for 5 min and incubated with test compounds at 100uM, plus protease inhibitor cocktail (Promega G6521), in a final concentration of 5% DMSO for 1 h at 37°C. After incubation, 100 μl/well of cells were aliquoted into a 96-well, thin-walled PCR plate and then heated for 3 minutes using a pre-warmed MJ Tetrad DNA Engine set to run a temperature gradient of 42 to 66°C. The plates were then cooled to room temperature for 10 min, and then 80μl of each sample was transferred to a white-walled 96-well Nunc plate before NanoBRET™ NanoGlo Substrate diluted in Opti-MEM was added. NanoLuc enzyme activity was read out within 10 min using a BMG Clariostar plate reader.

[2] = target: T2, NanoLuc-PLK3 fusion protein (Homo sapiens, UniProt Q9H4B4); assay: NanoLuc thermal shift assay; settings: compound at 100 μM
T2 construct: NanoLuc fused to the N-termini of full-length human PLK1, PLK2, PLK3, PLK4 or p38α MAPK; expressed in transfected cells; host or cells: HeLa, transient, digitonin-permeabilised
T2 sequence (Q9H4B4 whole entry, the tested form may be a part): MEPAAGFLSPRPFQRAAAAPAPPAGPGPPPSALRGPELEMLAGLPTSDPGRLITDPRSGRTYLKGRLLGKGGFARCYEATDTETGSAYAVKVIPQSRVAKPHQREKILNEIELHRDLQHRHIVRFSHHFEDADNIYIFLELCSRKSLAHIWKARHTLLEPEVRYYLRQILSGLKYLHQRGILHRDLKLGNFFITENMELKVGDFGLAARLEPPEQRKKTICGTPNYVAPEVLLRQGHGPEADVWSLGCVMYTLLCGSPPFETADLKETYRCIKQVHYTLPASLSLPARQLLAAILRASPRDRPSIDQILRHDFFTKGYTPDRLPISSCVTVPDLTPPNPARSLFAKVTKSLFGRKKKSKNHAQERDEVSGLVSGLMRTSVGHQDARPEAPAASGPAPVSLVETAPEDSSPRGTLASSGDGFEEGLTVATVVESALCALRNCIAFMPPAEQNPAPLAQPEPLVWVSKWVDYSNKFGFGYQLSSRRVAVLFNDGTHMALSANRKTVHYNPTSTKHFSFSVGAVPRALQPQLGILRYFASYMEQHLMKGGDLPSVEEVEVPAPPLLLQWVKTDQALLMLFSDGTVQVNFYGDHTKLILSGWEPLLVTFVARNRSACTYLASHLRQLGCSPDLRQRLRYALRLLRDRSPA
Method: as §1

HeLa = assay: GI50 for cell killing, HeLa; settings: Homo sapiens

## O=C(O)CCc1ccc(-c2ccc(Br)cc2)n1-c1ccccc1C(F)(F)F [Poloppin]
[1]
  thermal stability of NanoLuc-PLK2: increases the thermal stability
[2]
  thermal stability of NanoLuc-PLK3: increases the thermal stability
HeLa
  GI50: 10 µM
